Counter-ions that a name gives are not always drawn. Active and inactive are the calls of the source.
Assays:
[1] = target: T1, Heat shock factor protein 1 (Mus musculus, UniProt P38532); assay: decrease of HSF1-responsive luciferase luminescence – cell-based, NIH3T3, dose retest, confirmation (AID 2382); type: functional;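 also: NIH3T3 fibroblasts with HSF1-driven luciferase reporter stressed by proteasome inhibitor MG132; luminescence from HSF1-driven luciferase expression after 8 hours of MG132 stress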
T1 sequence (P38532 whole entry): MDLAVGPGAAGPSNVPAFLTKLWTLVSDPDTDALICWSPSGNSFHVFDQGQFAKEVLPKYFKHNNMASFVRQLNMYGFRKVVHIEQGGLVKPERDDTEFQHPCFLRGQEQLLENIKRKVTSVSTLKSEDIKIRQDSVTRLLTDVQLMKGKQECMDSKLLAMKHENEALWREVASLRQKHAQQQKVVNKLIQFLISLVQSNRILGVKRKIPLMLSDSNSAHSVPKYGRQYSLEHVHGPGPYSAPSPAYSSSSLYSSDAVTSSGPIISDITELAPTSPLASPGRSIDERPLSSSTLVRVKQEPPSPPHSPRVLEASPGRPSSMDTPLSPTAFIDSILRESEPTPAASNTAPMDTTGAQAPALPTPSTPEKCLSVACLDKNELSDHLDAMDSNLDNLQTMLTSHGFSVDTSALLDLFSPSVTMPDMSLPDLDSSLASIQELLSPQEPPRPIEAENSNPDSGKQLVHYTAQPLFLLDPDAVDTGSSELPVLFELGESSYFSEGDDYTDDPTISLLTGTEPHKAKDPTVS

HEK293 [2] = assay: inhibition of NOD1-driven NF-kB reporter – cell-based, luminescence, uHTS, primary screen (AID 1578); type: functional; conditions: Homo sapiens
HEK293 [3] = assay: cells; type: functional, cell-based; conditions: Homo sapiens
HEK293 [4] = assay: cells; type: functional, cell-based; conditions: Homo sapiens; remark: listed apart in the source
[5] = target: Nucleotide-binding oligomerization domain-containing protein 2 (Homo sapiens, UniProt Q9HC29); assay: inhibition of NOD2-driven NF-kB reporter – cell-based, luminescence, uHTS, HEK293 (AID 1566); type: functional
HEK293 [6] = assay: cells; type: functional, cell-based; conditions: Homo sapiens; remark: listed apart in the source
HEK293 [7] = assay: NOD2 signaling inhibitors in MDP-stimulated cells, cell-based, uHTS, luminescence (AID 2001); type: functional; conditions: Homo sapiens
[8] = target: T2, Microphthalmia-associated transcription factor (Homo sapiens, UniProt O75030); assay: reducers of TRPM1 reporter luminescence, concentration series – cell-based, SK-MEL-5, cherry-picked, set 3, MITF inhibitor project, dose response (AID 493073); type: functional;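 also: SK-MEL-5 melanoma cells with luciferase driven by the MITF target TRPM1 promoter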
T2 sequence (O75030 whole entry): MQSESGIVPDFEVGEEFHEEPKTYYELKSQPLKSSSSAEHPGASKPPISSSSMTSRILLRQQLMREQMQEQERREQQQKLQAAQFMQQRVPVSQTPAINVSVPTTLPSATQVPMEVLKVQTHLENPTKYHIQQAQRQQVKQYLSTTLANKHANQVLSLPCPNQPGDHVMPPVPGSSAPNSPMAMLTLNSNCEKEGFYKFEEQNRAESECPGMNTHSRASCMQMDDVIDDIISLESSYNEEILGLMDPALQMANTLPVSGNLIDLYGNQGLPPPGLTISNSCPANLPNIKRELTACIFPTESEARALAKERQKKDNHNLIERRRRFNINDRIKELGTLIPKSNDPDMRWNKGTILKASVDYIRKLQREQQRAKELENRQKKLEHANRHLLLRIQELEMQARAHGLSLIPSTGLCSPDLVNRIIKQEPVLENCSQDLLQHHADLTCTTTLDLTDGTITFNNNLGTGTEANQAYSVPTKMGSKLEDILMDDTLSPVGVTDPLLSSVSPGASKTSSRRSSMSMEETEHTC

Vero = assay: viability of Vero cells under compound – cytotoxicity control for flavivirus capping enzyme inhibitors (AID 588742); type: functional; conditions: Chlorocebus sabaeus
[9] = target: Glucose-6-phosphate 1-dehydrogenase (Homo sapiens, UniProt P11413); assay: inhibition of Homo sapiens G6PD, dose series – biochemical, fluorescence, selectivity assay for P. falciparum G6PD inhibitor project, dose response (AID 504792); type: functional
Genome polyprotein = Genome polyprotein (dengue virus type 2, UniProt P29990); assay: flavivirus cap methylation enzyme inhibition – biochemical, confirmation dose response, primary screen (AID 588689); type: functional
CAAX prenyl protease 2 [10] = target: CAAX prenyl protease 2 (Saccharomyces cerevisiae S288c, UniProt Q03530); type: biochemical
Trypsin = Trypsin (Sus scrofa, UniProt P00761); assay: trypsin protease activity blockade – biochemical, quenched peptide fluorescence, cherry-pick, selectivity assay for Rce1 protease inhibitor project, dose response (AID 488789)
CAAX prenyl protease 2 [11] = target: CAAX prenyl protease 2 (Homo sapiens, UniProt Q9Y256); assay: inhibition of Ras-converting CAAX protease Rce1 – biochemical, yeast membranes, quenched-peptide fluorescence, cherry-pick, dose response (AID 588849)
[12] = target: T3, Serine/threonine-protein phosphatase (Candida dubliniensis (strain CD36 / CBS 7987 / NCPF 3949 / NRRLY-17841) (Yeast), UniProt B9W6M3); assay: Fluorescence Cell-Based Secondary Assay to Identify Inhibitors of Calcineurin. [Related pubchem assays (depositor defined):AID1979, AID2007]; type: functional
T3 sequence (B9W6M3 whole entry): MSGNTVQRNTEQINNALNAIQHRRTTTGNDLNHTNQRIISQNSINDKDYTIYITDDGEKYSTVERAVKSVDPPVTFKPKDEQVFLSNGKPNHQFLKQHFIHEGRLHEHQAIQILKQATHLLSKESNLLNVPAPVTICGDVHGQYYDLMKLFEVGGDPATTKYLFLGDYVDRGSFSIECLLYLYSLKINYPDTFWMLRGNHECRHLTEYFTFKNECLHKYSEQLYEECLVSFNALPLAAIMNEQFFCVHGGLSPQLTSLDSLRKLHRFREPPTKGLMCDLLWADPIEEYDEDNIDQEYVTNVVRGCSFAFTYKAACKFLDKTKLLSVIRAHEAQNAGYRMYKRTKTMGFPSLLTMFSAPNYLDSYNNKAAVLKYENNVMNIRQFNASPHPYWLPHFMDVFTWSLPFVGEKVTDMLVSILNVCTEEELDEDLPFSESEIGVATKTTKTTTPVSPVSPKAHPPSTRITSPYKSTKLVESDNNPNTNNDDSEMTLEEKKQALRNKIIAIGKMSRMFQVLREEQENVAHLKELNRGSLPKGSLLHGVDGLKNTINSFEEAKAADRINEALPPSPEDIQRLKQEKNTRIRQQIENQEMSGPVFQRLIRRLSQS

[13] = target: Nuclear receptor subfamily 0 group B member 1 (Homo sapiens, UniProt P51843); assay: Luminescence-based cell-based high throughput dose response assay for inhibitors of the orphan nuclear receptor subfamily 0, group B, member 1 (DAX1; NR0B1). [Related pubchem assays (depositor defined):AID504766, AID504790]; type: functional
HEK293 [14] = assay: cells; type: functional, cell-based; conditions: Homo sapiens; remark: listed apart in the source
[15] = target: Dual specificity protein kinase CLK1 (Homo sapiens, UniProt P49759); assay: inhibition of human CLK1 activity – biochemical, cherry-picked samples, selectivity assay for Dyrk1A inhibitor project, dose response (AID 588811)
[16] = target: FAD-linked sulfhydryl oxidase ALR (Homo sapiens, UniProt P55789); assay: ALR-catalysed DTT oxidation blockers – biochemical, H2O2 detection, luminescence, cherry-pick, dose response (AID 493248)
[17] = restored growth of temperature-sensitive Burl-1 yeast – whole organism, S. cerevisiae, Burl-1 ts mutant, luminescence, counter-screen for SUMOylation pathway inhibitor project, dose response (AID 463199); type: functional
[18] = target: Tyrosine-protein phosphatase non-receptor type 7 (Homo sapiens, UniProt P35236); assay: redox-active compounds inhibiting HePTP phosphatase – biochemical, fluorescence, mechanism study (AID 2068); type: functional
[19] = target: Dual specificity protein phosphatase 6 (Rattus norvegicus, UniProt Q64346); type: functional;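 also: confirmatory in vitro dose-response testing of MKP-3 inhibition; recombinant His-tagged MKP-3 made in E. coli BL21 with OMFP substrate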
[20] = target: UDP-galactopyranose mutase (Mycobacterium tuberculosis, UniProt P9WIQ1); assay: Inhibitors of Mycobacterium tuberculosis UDP-galactopyranose mutase (UGM) enzyme Measured in Biochemical System Using Plate Reader - 2105-02_Inhibitor_Dose_CherryPick_Activity. [Related pubchem assays (depositor defined):AID504439]
[21] = viability of PTEN-deleted HCT116 cells – cell-based, HCT116 PTEN knockout, dose response (AID 1047); type: functional;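 also: HCT116 colon tumor cells with PTEN knocked out; cells exposed to compound for 60 hours before readout; potency for loss of cell viability measured by luminescence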
A-375 = assay: MITF: Counter assay: A375 proliferation Measured in Cell-Based System Using Plate Reader - 2084-03_Inhibitor_Dose_DryPowder_Activity. [Related pubchem assays (depositor defined):AID488944]; type: functional; conditions: Homo sapiens
[22] = viability of HCT116 lacking mutant beta-catenin – cell-based, human colon tumor, dose response (AID 1045); type: functional;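 also: HCT116 colon tumor cells with beta catenin knocked out; cells exposed to compound for 60 hours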
[23] = NIH-3T3 fibroblast cytotoxicity, dose response, cytotoxicity control, cell-based, fluorescence, Alamar Blue, secondary assay (AID 2327); type: functional;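 also: NIH-3T3 mouse fibroblasts cultured with fluconazole at 8 µg/mL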
[24] = fluconazole-exposed Candida albicans growth modulators – fluorescence, retest, confirmation (AID 2467); type: functional, cell-based
[25] = target: T4, Corticotropin-releasing factor receptor 2/Corticotropin-releasing factor-binding protein (Homo sapiens, UniProt P24387+Q13324); assay: Dose Response confirmation of uHTS hits for small molecule antagonists of the CRF-binding protein and CRF-R2 receptor complex.; type: functional; conditions: read-out: IC50_Mean
T4 sequence (Q13324 whole entry): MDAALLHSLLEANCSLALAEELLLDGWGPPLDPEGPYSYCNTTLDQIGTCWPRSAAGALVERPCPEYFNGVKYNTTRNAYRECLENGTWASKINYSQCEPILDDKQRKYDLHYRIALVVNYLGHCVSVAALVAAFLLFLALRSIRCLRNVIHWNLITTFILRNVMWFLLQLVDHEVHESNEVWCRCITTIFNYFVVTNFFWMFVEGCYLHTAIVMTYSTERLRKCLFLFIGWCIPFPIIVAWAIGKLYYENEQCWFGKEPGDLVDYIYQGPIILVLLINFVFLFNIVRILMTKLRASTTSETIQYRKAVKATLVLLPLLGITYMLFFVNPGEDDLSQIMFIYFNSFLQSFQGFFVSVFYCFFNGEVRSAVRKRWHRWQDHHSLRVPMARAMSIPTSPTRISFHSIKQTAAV
T4 sequence (P24387 whole entry): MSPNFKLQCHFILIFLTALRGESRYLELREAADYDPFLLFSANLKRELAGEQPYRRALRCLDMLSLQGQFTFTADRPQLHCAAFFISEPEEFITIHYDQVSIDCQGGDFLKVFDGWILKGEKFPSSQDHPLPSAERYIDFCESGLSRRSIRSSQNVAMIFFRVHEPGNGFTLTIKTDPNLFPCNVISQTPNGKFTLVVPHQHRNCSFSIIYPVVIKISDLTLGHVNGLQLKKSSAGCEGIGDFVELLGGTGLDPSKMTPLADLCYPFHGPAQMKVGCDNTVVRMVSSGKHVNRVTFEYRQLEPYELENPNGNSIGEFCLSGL

[26] = target: Voltage-gated inwardly rectifying potassium channel KCNH2 (Homo sapiens, UniProt Q12809); conditions: Potency;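 also: confirmatory quantitative high-throughput screen measuring inhibition of hERG channel activity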
[27] = target: T4, Corticotropin-releasing factor receptor 2/Corticotropin-releasing factor-binding protein; assay: activators of CRF receptor 2 with binding protein – uHTS hits, confirmation (AID 602473); type: functional; conditions: read-out: EC50_Mean

Chain of UDP-galactopyranose mutase (P9WIQ1 whole entry): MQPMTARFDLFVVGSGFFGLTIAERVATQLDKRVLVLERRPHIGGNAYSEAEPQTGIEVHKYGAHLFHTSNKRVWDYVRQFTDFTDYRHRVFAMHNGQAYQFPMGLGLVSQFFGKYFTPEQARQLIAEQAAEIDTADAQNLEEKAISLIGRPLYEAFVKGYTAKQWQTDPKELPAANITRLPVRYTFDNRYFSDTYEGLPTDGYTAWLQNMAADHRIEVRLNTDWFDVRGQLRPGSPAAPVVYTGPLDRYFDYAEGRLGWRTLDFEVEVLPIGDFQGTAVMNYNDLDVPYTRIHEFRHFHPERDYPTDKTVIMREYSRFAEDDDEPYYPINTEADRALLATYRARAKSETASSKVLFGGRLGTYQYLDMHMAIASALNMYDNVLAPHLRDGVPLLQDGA
Chain of Voltage-gated inwardly rectifying potassium channel KCNH2 (Q12809 whole entry): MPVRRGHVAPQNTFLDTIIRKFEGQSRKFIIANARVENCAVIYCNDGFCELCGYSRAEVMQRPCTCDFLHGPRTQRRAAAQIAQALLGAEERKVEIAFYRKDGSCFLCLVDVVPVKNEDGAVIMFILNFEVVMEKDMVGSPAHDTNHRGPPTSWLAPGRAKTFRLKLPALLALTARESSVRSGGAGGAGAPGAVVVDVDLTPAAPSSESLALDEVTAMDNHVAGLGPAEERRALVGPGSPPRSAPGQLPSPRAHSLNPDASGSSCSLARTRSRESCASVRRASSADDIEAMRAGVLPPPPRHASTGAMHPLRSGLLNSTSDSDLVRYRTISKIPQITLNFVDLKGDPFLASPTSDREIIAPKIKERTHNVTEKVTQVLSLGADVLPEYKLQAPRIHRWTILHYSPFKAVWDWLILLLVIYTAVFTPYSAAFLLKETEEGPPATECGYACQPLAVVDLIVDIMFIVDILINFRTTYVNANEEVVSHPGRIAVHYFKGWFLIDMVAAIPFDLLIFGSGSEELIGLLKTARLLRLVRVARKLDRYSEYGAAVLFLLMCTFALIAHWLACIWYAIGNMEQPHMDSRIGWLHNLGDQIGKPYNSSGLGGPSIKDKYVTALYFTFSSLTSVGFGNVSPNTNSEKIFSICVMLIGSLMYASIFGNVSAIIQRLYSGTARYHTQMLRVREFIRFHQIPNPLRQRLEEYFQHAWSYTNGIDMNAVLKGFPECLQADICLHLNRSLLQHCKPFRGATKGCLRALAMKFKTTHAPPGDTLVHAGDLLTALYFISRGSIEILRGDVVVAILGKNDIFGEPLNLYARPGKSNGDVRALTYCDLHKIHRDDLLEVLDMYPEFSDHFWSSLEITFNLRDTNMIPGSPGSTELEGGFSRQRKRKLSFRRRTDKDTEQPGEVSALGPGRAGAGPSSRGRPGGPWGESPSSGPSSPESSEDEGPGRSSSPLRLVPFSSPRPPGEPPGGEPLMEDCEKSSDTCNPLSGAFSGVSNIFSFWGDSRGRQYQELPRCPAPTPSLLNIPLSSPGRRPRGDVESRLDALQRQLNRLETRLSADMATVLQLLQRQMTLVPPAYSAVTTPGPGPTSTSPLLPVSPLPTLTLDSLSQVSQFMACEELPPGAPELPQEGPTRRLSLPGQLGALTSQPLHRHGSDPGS
Chain of Nucleotide-binding oligomerization domain-containing protein 2 (Q9HC29 whole entry, the tested form may be a part): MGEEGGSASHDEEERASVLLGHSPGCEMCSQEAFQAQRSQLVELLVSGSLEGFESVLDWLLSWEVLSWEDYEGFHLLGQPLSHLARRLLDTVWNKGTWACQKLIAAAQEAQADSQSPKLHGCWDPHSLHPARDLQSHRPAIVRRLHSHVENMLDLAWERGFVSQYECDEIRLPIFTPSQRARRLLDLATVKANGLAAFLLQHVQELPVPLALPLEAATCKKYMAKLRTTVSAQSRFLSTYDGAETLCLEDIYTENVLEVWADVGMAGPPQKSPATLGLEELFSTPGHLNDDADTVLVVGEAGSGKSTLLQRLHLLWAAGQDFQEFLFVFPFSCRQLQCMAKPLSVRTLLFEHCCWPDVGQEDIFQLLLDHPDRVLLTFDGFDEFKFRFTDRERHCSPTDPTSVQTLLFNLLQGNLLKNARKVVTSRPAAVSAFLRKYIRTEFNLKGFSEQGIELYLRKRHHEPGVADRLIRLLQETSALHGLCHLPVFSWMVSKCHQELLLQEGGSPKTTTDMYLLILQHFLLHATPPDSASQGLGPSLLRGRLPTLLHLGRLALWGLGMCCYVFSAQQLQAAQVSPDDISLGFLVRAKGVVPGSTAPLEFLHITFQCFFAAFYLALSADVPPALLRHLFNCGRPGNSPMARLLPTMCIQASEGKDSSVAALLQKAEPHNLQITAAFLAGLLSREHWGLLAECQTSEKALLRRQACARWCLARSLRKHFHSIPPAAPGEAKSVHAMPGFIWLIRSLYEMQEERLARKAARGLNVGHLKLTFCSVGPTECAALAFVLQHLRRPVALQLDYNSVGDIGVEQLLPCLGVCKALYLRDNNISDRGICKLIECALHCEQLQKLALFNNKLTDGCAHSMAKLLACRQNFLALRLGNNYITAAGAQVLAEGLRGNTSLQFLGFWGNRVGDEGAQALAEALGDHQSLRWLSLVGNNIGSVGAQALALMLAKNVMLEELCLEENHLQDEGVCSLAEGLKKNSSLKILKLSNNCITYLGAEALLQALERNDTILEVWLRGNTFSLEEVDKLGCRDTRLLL
Chain of CAAX prenyl protease 2 (Homo sapiens, UniProt Q9Y256) (Q9Y256 whole entry): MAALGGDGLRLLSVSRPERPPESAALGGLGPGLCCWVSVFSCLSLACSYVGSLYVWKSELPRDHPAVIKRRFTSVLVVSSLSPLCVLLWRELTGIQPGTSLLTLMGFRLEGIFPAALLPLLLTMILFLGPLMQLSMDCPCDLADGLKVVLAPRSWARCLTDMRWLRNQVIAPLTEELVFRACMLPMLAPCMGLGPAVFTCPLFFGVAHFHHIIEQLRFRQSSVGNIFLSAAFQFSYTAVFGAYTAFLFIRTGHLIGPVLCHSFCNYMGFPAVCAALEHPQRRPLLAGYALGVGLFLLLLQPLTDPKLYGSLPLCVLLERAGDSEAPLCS
Chain of Glucose-6-phosphate 1-dehydrogenase (P11413 whole entry): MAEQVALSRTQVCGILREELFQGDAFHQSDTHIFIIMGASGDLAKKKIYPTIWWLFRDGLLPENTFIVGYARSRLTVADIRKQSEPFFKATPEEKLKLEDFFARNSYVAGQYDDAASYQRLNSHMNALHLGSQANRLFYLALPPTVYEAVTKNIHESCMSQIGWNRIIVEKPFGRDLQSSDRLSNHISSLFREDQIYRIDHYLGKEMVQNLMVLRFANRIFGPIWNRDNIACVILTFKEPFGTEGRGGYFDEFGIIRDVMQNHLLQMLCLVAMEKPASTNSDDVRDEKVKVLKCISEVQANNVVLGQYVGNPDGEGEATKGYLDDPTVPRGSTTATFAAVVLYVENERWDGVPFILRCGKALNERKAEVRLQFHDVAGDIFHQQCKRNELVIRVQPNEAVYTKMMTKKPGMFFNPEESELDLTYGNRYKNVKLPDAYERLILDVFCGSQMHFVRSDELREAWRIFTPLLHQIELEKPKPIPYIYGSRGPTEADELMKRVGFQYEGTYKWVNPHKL
Chain of Trypsin (P00761 whole entry): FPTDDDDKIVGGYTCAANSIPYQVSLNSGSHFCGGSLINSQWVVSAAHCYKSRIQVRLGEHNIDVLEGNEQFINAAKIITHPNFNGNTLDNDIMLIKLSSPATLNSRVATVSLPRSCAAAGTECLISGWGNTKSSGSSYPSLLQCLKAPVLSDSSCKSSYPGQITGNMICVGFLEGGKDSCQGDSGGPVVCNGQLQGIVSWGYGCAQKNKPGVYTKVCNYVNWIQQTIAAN
Chain of Nuclear receptor subfamily 0 group B member 1 (P51843 whole entry): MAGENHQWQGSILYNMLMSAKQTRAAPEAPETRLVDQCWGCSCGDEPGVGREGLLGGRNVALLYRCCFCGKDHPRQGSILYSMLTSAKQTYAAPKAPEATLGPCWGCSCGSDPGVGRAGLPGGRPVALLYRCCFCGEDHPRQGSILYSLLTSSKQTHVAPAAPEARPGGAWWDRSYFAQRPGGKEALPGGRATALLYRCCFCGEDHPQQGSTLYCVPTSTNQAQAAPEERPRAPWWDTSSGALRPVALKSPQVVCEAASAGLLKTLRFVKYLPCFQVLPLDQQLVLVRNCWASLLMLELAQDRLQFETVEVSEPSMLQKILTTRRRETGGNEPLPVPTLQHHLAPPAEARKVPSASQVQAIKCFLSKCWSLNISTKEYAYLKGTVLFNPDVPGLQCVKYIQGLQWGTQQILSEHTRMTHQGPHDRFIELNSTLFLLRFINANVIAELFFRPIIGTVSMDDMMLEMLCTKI
Chain of FAD-linked sulfhydryl oxidase ALR (P55789 whole entry): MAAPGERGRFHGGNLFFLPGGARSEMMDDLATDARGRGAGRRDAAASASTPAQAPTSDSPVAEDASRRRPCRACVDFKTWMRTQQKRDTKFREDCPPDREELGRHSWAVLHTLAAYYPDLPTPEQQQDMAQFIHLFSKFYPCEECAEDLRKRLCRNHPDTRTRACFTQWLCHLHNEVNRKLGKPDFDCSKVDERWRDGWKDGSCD
Chain of Tyrosine-protein phosphatase non-receptor type 7 (P35236 whole entry): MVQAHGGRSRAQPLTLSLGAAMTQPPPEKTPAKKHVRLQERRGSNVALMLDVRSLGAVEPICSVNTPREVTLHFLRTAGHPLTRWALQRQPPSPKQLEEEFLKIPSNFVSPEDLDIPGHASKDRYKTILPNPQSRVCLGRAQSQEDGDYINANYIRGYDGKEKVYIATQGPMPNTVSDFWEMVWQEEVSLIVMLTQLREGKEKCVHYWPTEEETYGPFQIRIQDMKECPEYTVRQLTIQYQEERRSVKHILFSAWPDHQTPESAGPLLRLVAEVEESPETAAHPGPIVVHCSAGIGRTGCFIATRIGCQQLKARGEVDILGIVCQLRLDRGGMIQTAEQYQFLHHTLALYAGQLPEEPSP

O=C(CCl)Nc1ccc(Sc2ccc(NC(=O)CCl)cc2)cc1
EC50 [1]: 3.68 µM (active) | EC50 (HEK293 [2]): 10.1 µM (active) | IC50 (HEK293 [3]): 10.2 µM (active) | IC50 (HEK293 [4]): 1.62 µM (active) | EC50 [5]: 18.8 µM (active) | IC50 (HEK293 [6]): > 20 µM (inactive) | IC50 (HEK293 [7]): 2.71 µM (active) | AC50 [8]: 5.98 µM (active)

COc1cc(CN2CCCC(C(=O)c3ccc4c5c(cccc35)CC4)C2)cc(OC)c1O (stereo unspecified)
CC50 (Vero): > 40 µM (active) | IC50 [9]: 24.3 µM (inactive) | IC50 (Genome polyprotein): 97.7 µM (active)

COC(=O)C1=CNC=C(C(=O)OC)C1c1cccc2ccccc12
AC50 (CAAX prenyl protease 2 [10]): 26.9 µM (active) | AC50 (Trypsin): 80.3 µM (active) | AC50 (CAAX prenyl protease 2 [11]): 7.98 µM (active)

O=C1/C(=C\c2ccccc2)CCc2c1[nH]c1ccccc21
EC50 [12]: > 285 µM (inactive)

FC(F)(F)c1nnc2ccc(NCc3cccnc3)nn12
IC50 [13]: > 67.5 µM (inactive) | IC50 (HEK293 [14]): 50.4 µM (inactive)

CCN(Cc1cccs1)c1ncnc2ccc(-c3ccc4c(c3)OCO4)cc12
AC50 [15]: < 0.00195 µM (active)

O=C(O)CCc1ccc(-c2cccs2)n1NC(=O)c1cccs1
AC50 [16]: 1.55 µM (active) | AC50 [17]: 183 µM (active)

CCN(CC)C(=S)c1ccc(O)c(OC)c1
IC50 [18]: 4.42 µM (active) | IC50 [19]: > 100 µM (inactive)

O=C(NCC1CCCO1)c1cccc2c1C(=O)c1ccc(N3CCC(Cc4ccccc4)CC3)cc1S2(=O)=O (stereo unspecified)
AC50 [20]: 52.6 µM (active)

CCOc1cc(/C=N/N=C(N)N)ccc1OCc1ccc(Cl)cc1
EC50 [21]: 3.92 µM (active) | AC50 (A-375): 18 µM (active) | EC50 [22]: 3.01 µM (active) | EC50 [23]: 81.2 µM (active) | EC50 [24]: > 38 µM (not active)

c1ccc(C2CN3CCSC3=N2)cc1 (stereo unspecified) [TETRAMISOLE HYDROCHLORIDE]
IC50 [25]: > 47.1 µM (inactive) | AC50 [26]: 35.5 µM (inconclusive) | EC50 [27]: > 53 µM (inactive)

From ChEMBL document CHEMBL1201862, “PubChem BioAssay data set” (2004)
